Eight compounds from ChEMBL document CHEMBL1149134, “2-aminothiazole-derived opioids. Bioisosteric replacement of phenols” (J Med Chem, 2004) can be followed below.

Each structure is given as a SMILES string.

For orientation: Ki means the dissociation constant of the complex between target and ligand, obtained from inhibition or displacement. Read a low Ki as higher affinity. Usually EC50 stands for the concentration giving half of the maximal effect. One may read the Emax as the size of the effect at its maximum, as opposed to the concentration needed.

Experiment [1] deals with T1, Mu-type opioid receptor (Homo sapiens, UniProt P35372). Also noted: species or system Cricetulus griseus.
T1 sequence (P35372 whole entry): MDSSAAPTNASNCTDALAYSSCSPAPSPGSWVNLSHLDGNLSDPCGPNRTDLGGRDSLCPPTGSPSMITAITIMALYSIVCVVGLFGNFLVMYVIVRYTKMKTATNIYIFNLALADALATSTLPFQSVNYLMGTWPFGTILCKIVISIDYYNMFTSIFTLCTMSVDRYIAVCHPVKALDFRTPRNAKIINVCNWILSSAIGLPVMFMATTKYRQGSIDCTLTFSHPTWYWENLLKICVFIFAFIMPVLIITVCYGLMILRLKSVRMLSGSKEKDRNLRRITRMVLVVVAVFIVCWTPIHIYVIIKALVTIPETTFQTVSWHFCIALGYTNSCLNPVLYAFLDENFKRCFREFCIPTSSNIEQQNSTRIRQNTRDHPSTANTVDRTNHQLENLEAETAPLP
Description: Inhibition of [3H]-DAMGO binding to Opioid receptor mu 1 of Chinese hamster ovary membrane
Experiment [2] has as its target T2, Kappa-type opioid receptor (Homo sapiens, UniProt P41145). On the set-up: species or system Cricetulus griseus.
Description: Inhibition of [3H]U-69593 binding to Opioid receptor kappa 1 of Chinese hamster ovary membrane
For experiment [3], the target named is Delta-type opioid receptor (Homo sapiens, UniProt P41143). Kind of experiment: Inhibition of [3H]naltrindole binding to opioid receptor delta 1 of Chinese hamster ovary membrane. On the set-up: species or system Cricetulus griseus.
Sequence of Delta-type opioid receptor (P41143 whole entry): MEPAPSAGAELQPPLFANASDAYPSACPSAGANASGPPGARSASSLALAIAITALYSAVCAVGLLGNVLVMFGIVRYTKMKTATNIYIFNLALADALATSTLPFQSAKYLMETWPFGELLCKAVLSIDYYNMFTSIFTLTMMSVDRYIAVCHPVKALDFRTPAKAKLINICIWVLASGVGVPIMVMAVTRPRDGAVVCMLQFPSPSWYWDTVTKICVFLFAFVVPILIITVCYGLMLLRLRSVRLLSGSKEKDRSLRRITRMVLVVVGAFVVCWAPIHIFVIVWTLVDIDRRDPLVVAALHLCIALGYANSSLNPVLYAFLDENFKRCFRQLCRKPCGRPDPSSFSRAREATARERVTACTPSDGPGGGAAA
The target in experiment [4] is T2, Kappa-type opioid receptor. As to the kind of experiment: Agonistic activity against kappa opioid receptor in Chinese hamster ovary membranes. Format: functional, cell membranes, Cricetulus griseus.
Experiment [5] deals with T2, Kappa-type opioid receptor. As to the kind of experiment: Binding ability against kappa opioid receptor by stimulating the [35S]GTP-gamma-S, radioligand in Chinese hamster ovary membranes. Format: functional, cell membranes. To be noted: Cricetulus griseus. (In general: GTPγS is a poorly hydrolysed GTP analogue; its binding reports G protein activation.)
In experiment [6] the target is T1, Mu-type opioid receptor.
Description: Agonistic activity against Opioid receptor mu 1 in Chinese hamster ovary membranes

T2 sequence (P41145 whole entry): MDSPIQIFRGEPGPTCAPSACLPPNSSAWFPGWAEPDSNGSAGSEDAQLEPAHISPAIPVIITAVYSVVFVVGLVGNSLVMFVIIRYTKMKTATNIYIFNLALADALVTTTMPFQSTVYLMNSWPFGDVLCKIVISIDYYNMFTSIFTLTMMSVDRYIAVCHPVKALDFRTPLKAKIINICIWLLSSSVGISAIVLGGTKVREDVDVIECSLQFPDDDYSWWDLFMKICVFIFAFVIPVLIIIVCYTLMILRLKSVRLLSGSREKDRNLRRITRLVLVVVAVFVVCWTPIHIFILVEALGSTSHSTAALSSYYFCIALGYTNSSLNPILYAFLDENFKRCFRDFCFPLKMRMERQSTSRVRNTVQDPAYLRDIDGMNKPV

In the case of `CN1CC[C@]23CCCC[C@H]2[C@H]1Cc1cc2sc(N)nc2cc13` (stereo in doubt; 4), the values for the Ki (on Mu-type opioid receptor [1]; in experiment [2]; in experiment [3]) were 1.1 nM, 6.4 nM and 190 nM, respectively.

In turn, `Nc1nc2cc3c(cc2s1)C[C@@H]1[C@@H]2CCCC[C@]32CCN1CC1CCC1` displayed an EC50 in experiment [4] of 29 nM. For the same compound, the maximal effect (Emax) in experiment [5] was found to be 80%.

As for `C[C@H]1C2Cc3ccc(O)cc3[C@]1(C)CCN2CC1CC1`, the inhibition constant Ki in experiment [2] worked out at 0.18 nM; in experiment [3], 1.1 nM.

Consider `Nc1nc2cc3c(cc2s1)C(=O)[C@@H]1C2CCCC[C@]32CCN1CC1CCC1` (some centres not stated), for which the inhibition constant Ki on Mu-type opioid receptor [1] is 200 nM; in experiment [2], 13 nM; in experiment [3], over 10000 nM.

For the compound `Nc1nc2cc3c(cc2s1)C[C@@H]1[C@@H]2CCCC[C@]32CCN1CC1CC1`, the concentration for a half-maximal effect (EC50) in experiment [4] is 2.4 nM; at Mu-type opioid receptor [6], 73 nM. Besides, the maximal effect (Emax) in experiment [5] came to 80%.

On to `C[C@H]1[C@H]2Cc3cc4sc(N)nc4cc3[C@]1(C)CCN2CC1CC1`, for which the Ki at Mu-type opioid receptor [1] is 48 nM; in experiment [2], 6.7 nM; in experiment [3], 940 nM.

For the compound `CN1CC[C@]23c4c5cc6sc(N)nc6c4O[C@H]2[C@@H](O)CCC3[C@H]1C5` (some centres not stated), the figures for the Ki (at Mu-type opioid receptor [1]; in experiment [2]; in experiment [3]) were 30 nM, 220 nM and 32 nM, respectively.

On to `C[C@H]1[C@H]2Cc3cc4sc(N)nc4cc3[C@]1(C)CCN2CC1CCC1`, for which the inhibitory constant (Ki) on Mu-type opioid receptor [1] was 8.3 nM; in experiment [2] it was 0.49 nM; in experiment [3], 93 nM.
